Experimental data reported in article PMC5041986 (Oncotarget, 2016).

Tests used:
RT-112 cells [1] = experiment: MTT cell viability assay; assay type: cell-based; settings: 72 h, mean
Description: (§1) Cells were seeded in 96-well plates and exposed to DMSO, or indicated compounds for 72 hours. Cell viability was assessed using the 3-(4,5-dimethylthiazol-2-yl)-2,5-diphenyltetrazolium bromide (MTT) assay as described previously [46]. Briefly, 100 μl of 0.5 mg/ml MTT were added to each well and incubated at 37°C for 1 hour. After that, 100 μl of extraction reagents (0.1 M sodium acetate buffer for suspension cells or DMSO for attached cells) were added to each well to lyse cells and absorbance at 550 nm was measured. Cell viability was expressed as the percentage of surviving cells in drug-treated versus DMSO-treated control cells (which was considered as 100% viability).

PLC/PRF/5 cells = experiment: MTT cell viability assay; assay type: cell-based; settings: PLC5/PRF/5, 5 μM, 72 h, mean
Description: as §1

Hep3B cells = experiment: MTT cell viability assay; assay type: cell-based; settings: 72 h, mean
Description: as §1

SNU-16 cells = experiment: MTT cell viability assay; assay type: cell-based; settings: SNU-16, 5 μM, 72 h, mean
Description: as §1

RT-112 tumor xenografts = experiment: RT-112 xenograft model; assay type: in vivo; settings: 5 mg/kg, ip, qwk, nude mice
Description: Tumors were measured weekly using calipers. Tumor volume (mm^3) was calculated from w^2×l/2 (w = width, l= length in mm of the tumor).

RT-112 cells [2] = experiment: SA-β-galactosidase staining (senescence); assay type: cell-based
Description: Cells were seeded in 6-well plates and treated with indicated agents for 24h. Senescence was measured by Senescence β-Galactosidase Staining Kit according to the manufacture's instruction (Cell Signaling Technology, Danvers, MA, USA).

RT-112 cells [3] = experiment: Flow cytometric cell cycle analysis; assay type: cell-based; settings: 48 h to 72 h, flow cytometry
Description: Cells were seeded in 6-well plates and treated with DMSO or indicated compounds at various concentrations for the indicated times. After treatment, the cells were harvested by trypsinization, washed with PBS, and the pellets were fixed in ice-cold 70% ethanol at -20°C overnight. After centrifugation, the cells were incubated for 15 minutes at room temperature in 0.1 mL of phosphate-citric acid buffer (0.2 M NaHPO4, 0.1 M citric acid, and pH 7.8) and then stained with propidium iodide staining buffer containing Triton X-100 (0.1%, v/v), RNase A (100 μg/mL), and propidium iodide (80 μg/mL) for 30 minutes in the dark. DNA contents were analyzed by flow cytometry with CellQuest software (Becton Dickinson, Mountain View, CA, USA). The results were obtained from three independent experiments and the representative data were shown in Supplementary Figure S8 and S9.

Compound	Viability (% of control cells) RT-112 (10 μM) (RT-112 cells [1])	Viability (% of control cells) PLC5/PRF/5 (5 μM) (PLC/PRF/5 cells)	Viability (% of control cells) Hep3B (5 μM) (Hep3B cells)	Viability (% of control cells) RT-112 (5 μM) (RT-112 cells [1])	Viability (% of control cells) SNU-16 (5 μM) (SNU-16 cells)	also measured
COc1c(Cl)c(NC(=O)N(C)c2cc(-c3ccco3)ncn2)c(Cl)c(OC)c1Cl [MPT0L154]	76.1 % of control cells					
COc1c(Cl)c(NC(=O)N(C)c2cc(-c3ccc(F)cc3)ncn2)c(Cl)c(OC)c1Cl [MPT0L155]	44.4 % of control cells	55.3 % of control cells	72.8 % of control cells	92.6 % of control cells	80.5 % of control cells	
COc1c(Cl)c(NC(=O)N(C)c2cc(-c3ccc(Cl)cc3)ncn2)c(Cl)c(OC)c1Cl [MPT0L156]	34.8 % of control cells	44.4 % of control cells	54.3 % of control cells	98.3 % of control cells	76.7 % of control cells	
CCN1CCN(c2ccc(-c3cc(N(C)C(=O)Nc4c(Cl)c(OC)c(Cl)c(OC)c4Cl)ncn3)cc2)CC1 [MPT0L182]	8.6 % of control cells	78.3 % of control cells	96.3 % of control cells	95.6 % of control cells	63.2 % of control cells	
N.N.[Cl][Pt][Cl] [cisplatin, reference compound]						tumor growth inhibition (% TGI) (RT-112 tumor xenografts): 56.3%
COc1cccc2c1C(=O)c1c(O)c3c(c(O)c1C2=O)C[C@@](O)(C(=O)CO)C[C@@H]3O[C@H]1C[C@H](N)[C@H](O)[C@H](C)O1 [doxorubicin, reference compound]						senescence (β-galactosidase activity) (RT-112 cells [2]): increased β-galactosidase activity
CC(=O)O[C@H]1C(=O)[C@@]2(C)[C@H]([C@H](OC(=O)c3ccccc3)[C@]3(O)C[C@H](OC(=O)[C@H](O)[C@@H](NC(=O)c4ccccc4)c4ccccc4)C(C)=C1C3(C)C)[C@]1(OC(C)=O)CO[C@@H]1C[C@@H]2O [paclitaxel]						accumulation of the sub-G1 phase (apoptotic cell death) (RT-112 cells [3]): induced pronounced apoptosis
